We go through 26 molecules from patent US8741923B2, “Oxadiazole fused heterocyclic derivatives useful for the treatment of multiple sclerosis” (Merck Serono SA, priority 2008, dated 2014).

The target in the first test is T1, S1P1 (Homo sapiens (Human), UniProt P21453). The test is described as follows: Receptor binding assay ([33P]sphingosine 1-phosphate, SPA) on S1P1 membranes. The conditions noted are these: membranes from CHO cells expressing S1P1. The procedure: (§1) Receptor binding assay: Membranes were prepared from CHO cells expressing S1P1 or S1P3 for use in ligand and 35S-GTPγS binding studies. Cells were suspended in 50 mM TRIS, pH 7.4, 2 mM EDTA, 250 mM Sucrose (buffer A) and 1× Complete protease inhibitor cocktail (Roche), and disrupted at 4° C. by N2 decompression using a cell disruption bomb (Parr Instrument). Following centrifugation at 1000 RPM for 10 min at 4° C., the supernatant was suspended in buffer A and centrifuged again at 19000 RPM for 60 min at 4° C. The pellet was then suspended in 10 mM HEPES, pH 7.4, 1 mM EDTA, 250 mM Sucrose (Buffer B), and 1× Complete EDTA-free protease inhibitor cocktail and homogenized using a potter. Membranes were flash frozen in liquid N2 and stored at −80° C. [33P]sphingosine 1-phosphate (3000 Ci/mmol; American Radiolabeled Chemicals, Inc.) was added to test compounds in DMSO. Membranes and WGA SPA beads (GE Healthcare) were added to give a final volume of 100 μl in 96-well plates with assay concentrations of 25 μM or 10 μM [33P]sphingosine 1-phosphate (respectively for S1P1 or S1P3), 50 mM HEPES, pH 7.5, 5 mM MgCl2, 100 mM NaCl, 0.4% fatty acid-free BSA, 1-5 μg/well of proteins and 100 μg/well of WGA SPA beads. Binding was performed for 60 min at RT on a shaker and bound radioactivity was measured on a PerkinElmer 1450 MicroBeta counter. Specific binding was calculated by subtracting remaining radioactivity in the presence of 1000-fold excess of unlabeled S1P. Binding data were analyzed using the GraphPad Prism program.
T1 sequence (P21453 whole entry, species assumed): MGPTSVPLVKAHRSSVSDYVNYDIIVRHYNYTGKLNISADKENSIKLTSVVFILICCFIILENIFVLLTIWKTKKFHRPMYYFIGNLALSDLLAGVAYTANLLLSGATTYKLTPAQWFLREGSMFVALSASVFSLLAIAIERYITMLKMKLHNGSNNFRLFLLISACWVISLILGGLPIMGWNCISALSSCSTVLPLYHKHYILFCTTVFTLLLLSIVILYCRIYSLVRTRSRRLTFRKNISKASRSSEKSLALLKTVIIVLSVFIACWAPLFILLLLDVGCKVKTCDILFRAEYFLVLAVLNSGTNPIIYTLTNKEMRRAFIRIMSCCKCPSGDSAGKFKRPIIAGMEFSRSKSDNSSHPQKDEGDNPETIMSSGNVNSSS
For `COCc1cc(-c2nc(-c3ccc4c(c3)CN(CCC(=O)O)CC4)no2)ccc1-c1ccccc1C` [Compound 35, 3-[7-{5-[2-(methoxymethyl)-2′-methylbiphenyl-4-yl]-1,2,4-oxadiazol-3-yl}-3,4-dihydroisoquinolin-2(1H)-yl]propanoic acid], the Ki came to 0.23 nM. In other words, the sub-nanomolar range.
Still for that read-out and setting: the value for `Cc1ccccc1-c1ccc(-c2nc(-c3ccc4c(c3)CN(CC(=O)O)CC4)no2)cc1C(F)(F)F` [Compound 36, [7-{5-[2′-methyl-2-(trifluoromethyl)biphenyl-4-yl]-1,2,4-oxadiazol-3-yl}-3,4-dihydroisoquinolin-2(1H)-yl]acetic acid] was 0.49 nM.
`CC1CCCCN1c1ccc(-c2nc(-c3ccc4c(c3)CN(CCC(=O)O)CC4)no2)cc1C(F)(F)F` (centres unmarked) [Compound 37, 3-[7-{5-[4-(2-methylpiperidin-1-yl)-3-(trifluoromethyl)phenyl]-1,2,4-oxadiazol-3-yl}-3,4-dihydroisoquinolin-2(1H)-yl]propanoic acid] showed a Ki of 0.75 nM.
On the same count and under the same terms, the value for `CC1CCCCN1c1ccc(-c2nc(-c3ccc4c(c3)CN(CC(=O)O)CC4)no2)cc1C(F)(F)F` (centres unmarked) [Compound 38, [7-{5-[4-(2-methylpiperidin-1-yl)-3-(trifluoromethyl)phenyl]-1,2,4-oxadiazol-3-yl}-3,4-dihydroisoquinolin-2(1H)-yl]acetic acid] was 0.8 nM; that for `Cc1ccccc1-c1ccc(-c2nc(-c3ccc4c(c3)CN(CCC(=O)O)CC4)no2)cc1C(F)(F)F` [Compound 39, 3-[7-{5-[2′-methyl-2-(trifluoromethyl)biphenyl-4-yl]-1,2,4-oxadiazol-3-yl}-3,4-dihydroisoquinolin-2(1H)-yl]propanoic acid] was 0.6 nM; that for `COCc1cc(-c2nc(-c3ccc4c(c3)CCN(CCC(=O)O)C4)no2)ccc1-c1ccccc1C` [Compound 40, 3-{6-[5-(2-Methoxymethyl-2′-methyl-biphenyl-4-yl)-[1,2,4]oxadiazol-3-yl]-3,4-dihydro-1H-isoquinolin-2-yl}-propionic acid] was 1.1 nM.

A further test deals with T1, S1P1. The test is described as follows: 35S-GTPγS binding, S1P1 membranes. The format is biochemical. Particulars: membranes from CHO cells expressing S1P1. The procedure:
as §1, with “Membranes and WGA SPA beads (GE Healthcare) were added to give a final volume of 100 μl in 96-well plates with assay concentrations of 25 μM or 10 μM [33P]sphingosine 1-phosphate (respectively for S1P1 or S1P3), 50 mM HEPES, pH 7.5, 5 mM MgCl2, 100 mM NaCl, 0.4% fatty acid-free BSA, 1-5 μg/well of proteins and 100 μg/well of WGA SPA beads. Binding was performed for 60 min at RT on a shaker and bound radioactivity was measured on a PerkinElmer 1450 MicroBeta counter.” left out
Measurements of 35S-GTPγS Binding:
After 60 min incubation at 30° C. on a shaker, plates were centrifuged for 10 min at 2000 RPM. […] Triplicate samples were averaged and expressed as % response relative to S1P activation in absence of compound (n=2).
With `CC1CCCCN1c1ccc(-c2nc(-c3ccc4[nH]cnc4c3)no2)cc1C#N` (centres unmarked) [Compound 2, 5-[3-(1H-benzimidazol-5-yl)-1,2,4-oxadiazol-5-yl]-2-(2-methylpiperidin-1-yl)benzonitrile], a half-maximal effect (EC50) was put at 10 nM.
Molecule `COCc1cc(-c2nc(-c3ccc4[nH]cnc4c3)no2)ccc1N1CCCCC1C` (centres unmarked) [Compound 6, 5-{5-[3-(methoxymethyl)-4-(2-methylpiperidin-1-yl)phenyl]-1,2,4-oxadiazol-3-yl}-1H-benzimidazole] had an EC50 of 2.5 nM. This EC50 lies about 4-fold lower than the previous one.
In turn, `CC1CCCCN1c1ccc(-c2nc(-c3cc(F)c4[nH]cnc4c3)no2)cc1C(F)(F)F` (centres unmarked) [Compound 7, 7-fluoro-5-{5-[4-(2-methylpiperidin-1-yl)-3-(trifluoromethyl)phenyl]-1,2,4-oxadiazol-3-yl}-1H-benzimidazole] yielded a concentration giving a half-maximal response (EC50) of 14 nM.
In turn, `Cc1cc(-c2noc(-c3ccc(N4CCCCC4C)c(C(F)(F)F)c3)n2)cc2nc[nH]c12` (centres unmarked) [Compound 8, 7-methyl-5-{5-[4-(2-methylpiperidin-1-yl)-3-(trifluoromethyl)phenyl]-1,2,4-oxadiazol-3-yl}-1H-benzimidazole] registered an EC50 of 7 nM.
Still for that read-out and setting: to `COCc1cc(-c2nc(-c3cc(F)c4[nH]cnc4c3)no2)ccc1-c1ccccc1C` [Compound 9, 7-fluoro-5-{5-[2-(methoxymethyl)-2′-methylbiphenyl-4-yl]-1,2,4-oxadiazol-3-yl}-1H-benzimidazole] belongs 0.5 nM.
Consider `Cc1cc(-c2nc(-c3ccc4c(c3)CN(C(=O)OC(C)(C)C)CC4)no2)cnc1N1CCCC1C` (centres unmarked) [Compound 13, tert-butyl 7-{5-[5-methyl-6-(2-methylpyrrolidin-1-yl)pyridin-3-yl]-1,2,4-oxadiazol-3-yl}-3,4-dihydroisoquinoline-2(1H)-carboxylate], for which the half-maximal effective concentration (EC50) is more than 20000 nM.
On the same count and under the same terms, to `Cc1cc(-c2nc(-c3ccc4c(c3)CNCC4)no2)cnc1N1CCCC1C` (centres unmarked) [Compound 14, 7-{5-[5-methyl-6-(2-methylpyrrolidin-1-yl)pyridin-3-yl]-1,2,4-oxadiazol-3-yl}-1,2,3,4-tetrahydroisoquinoline] belongs 64 nM; to `Cc1ccccc1-c1ccc(-c2nc(-c3ccc4c(ccn4C)c3)no2)cc1C` [Compound 17, 5-[5-(2,2′-dimethylbiphenyl-4-yl)-1,2,4-oxadiazol-3-yl]-1-methyl-1H-indole], 1330 nM.
`Cc1ccccc1-c1ccc(-c2nc(-c3ccc4c(ccn4CC(=O)O)c3)no2)cc1C` [Compound 18, {5-[5-(2,2′-dimethylbiphenyl-4-yl)-1,2,4-oxadiazol-3-yl]-1H-indol-1-yl}acetic acid] registered a concentration for a half-maximal effect (EC50) of 3030 nM.
On the same count and under the same terms, the value for `CC1CCCCN1c1ccc(-c2nc(-c3ccc4c(ccn4C)c3)no2)cc1[N+](=O)[O-]` (centres unmarked) [Compound 19, 1-methyl-5-{5-[4-(2-methylpiperidin-1-yl)-3-nitrophenyl]-1,2,4-oxadiazol-3-yl}-1H-indole] was 1270 nM; that for `COc1cc2[nH]c(C(=O)O)cc2cc1-c1noc(-c2ccc(N3CCCCC3C)c(C(F)(F)F)c2)n1` (centres unmarked) [Compound 21, 6-methoxy-5-{5-[4-(2-methylpiperidin-1-yl)-3-(trifluoromethyl)phenyl]-1,2,4-oxadiazol-3-yl}-1H-indole-2-carboxylic acid] was 468 nM; that for `CC1CCCCN1c1ccc(-c2nc(-c3ccc4[nH]ccc4c3)no2)cc1C#N` (centres unmarked) [Compound 23, 5-[3-(1H-indol-5-yl)-1,2,4-oxadiazol-5-yl]-2-(2-methylpiperidin-1-yl)benzonitrile] was 42 nM.
Same read-out and setting: to `COCc1cc(-c2nc(-c3cc(C)c4[nH]cnc4c3)no2)ccc1-c1ccccc1C` [Compound 26, 5-{5-[2-(methoxymethyl)-2′-methylbiphenyl-4-yl]-1,2,4-oxadiazol-3-yl}-7-methyl-1H-benzimidazole] belongs 38.1 nM.
Still for that read-out and setting: the value for `C[C@@H]1CCCCN1c1ccc(-c2nc(-c3ccc4[nH]cnc4c3)no2)cc1C(F)(F)F` [Compound 28, 5-{5-[4-[(2R)-2-methylpiperidin-1-yl]-3-(trifluoromethyl)phenyl]-1,2,4-oxadiazol-3-yl}-1H-benzimidazole] was 23 nM; that for `C[C@H]1CCCCN1c1ccc(-c2nc(-c3ccc4[nH]cnc4c3)no2)cc1C(F)(F)F` [Compound 29, 5-{5-[4-[(2S)-2-methylpiperidin-1-yl]-3-(trifluoromethyl)phenyl]-1,2,4-oxadiazol-3-yl}-1H-benzimidazole] was 3 nM; that for `CCc1ccccc1-c1ccc(-c2nc(-c3ccc4c(c3)CN(CC(=O)O)CC4)no2)cc1COC` [Compound 30, [7-{5-[2′-ethyl-2-(methoxymethyl)biphenyl-4-yl]-1,2,4-oxadiazol-3-yl}-3,4-dihydroisoquinolin-2(1H)-yl]acetic acid] was 4.39 nM.
Molecule `CCc1ccccc1-c1ccc(-c2nc(-c3ccc4c(c3)CN(CCC(=O)O)CC4)no2)cc1COC` [Compound 31, 3-[7-{5-[2′-ethyl-2-(methoxymethyl)biphenyl-4-yl]-1,2,4-oxadiazol-3-yl}-3,4-dihydroisoquinolin-2(1H)-yl]propanoic acid] came in with an EC50 of 2.52 nM.
Same read-out and setting: to `COCc1cc(-c2nc(-c3ccc4cc(C(=O)O)[nH]c4c3)no2)ccc1-c1ccccc1C` [Compound 32, 6-{5-[2-(methoxymethyl)-2′-methylbiphenyl-4-yl]-1,2,4-oxadiazol-3-yl}-1H-indole-2-carboxylic acid] belongs 30.8 nM; to `CCC1CCCCN1c1ccc(-c2nc(-c3ccc4c(c3)CN(CCC(=O)O)CC4)no2)cc1COC` (centres unmarked) [Compound 33, 3-[7-{5-[4-(2-ethylpiperidin-1-yl)-3-(methoxymethyl)phenyl]-1,2,4-oxadiazol-3-yl}-3,4-dihydroisoquinolin-2(1H)-yl]propanoic acid], 0.89 nM; to `CCC1CCCCN1c1ccc(-c2nc(-c3ccc4c(c3)CN(CC(=O)O)CC4)no2)cc1COC` (centres unmarked) [Compound 34, [7-{5-[4-(2-ethylpiperidin-1-yl)-3-(methoxymethyl)phenyl]-1,2,4-oxadiazol-3-yl}-3,4-dihydroisoquinolin-2(1H)-yl]acetic acid], 1.93 nM.
